Like-named read-outs stand apart in the source and are kept apart here.
Test: Single-dose pharmacokinetics, safety and tolerability of 10-minute intravenous infusion in healthy volunteers
Format: in vivo, human
Conditions: for Cmax / Tmax / AUC(0-inf) / AUC(0-t) / clearance / half-life / Vd: human, plasma; for Cmax: read-out: Cmax, mean (SD); for AUC(0-inf): read-out: AUC0-∞, mean (SD) (converted); for AUC(0-t): read-out: AUClast, mean (SD) (converted); for Vd: read-out: Vz, mean (SD)
Procedure: Subjects: This study was conducted at the New Orleans Center for Clinical Research, New Orleans, La., in accordance with US Good Clinical Practice guidelines. Subjects were required to be in generally good health as determined by physical examination and laboratory testing, as well as assessment of vital signs. Exclusion criteria included testing positive on drug screening (drugs of abuse); ingesting caffeine, alcohol, or medication within 24 hours of study entry; or receiving an investigational drug with 30 days of study entry. Women of childbearing potential and men whose female partners were not using an acceptable contraceptive method were excluded. Other exclusion criteria included subjects with known postural hypotension, resting supine systolic blood pressure of 90 mmHg or lower, diastolic blood pressure of 60 mmHg or lower and heart rate of 90 beats/min or greater; history of human immunodeficiency virus infection; positive test result for hepatitis B surface antigen or hepatitis C antibody; and any clinically relevant condition that could potentially confound the analysis or present a safety risk.
Study Methods: The study was designed as a single-center, open-label, nonrandomized, intravenous dose-escalation study in 4 cohorts (n=6 each) of healthy volunteers. The protocol was approved by the institutional review board; all subjects gave written informed consent. Subjects from each cohort were to receive 3 rising doses of binodenoson administered via intravenous infusion over a period of 10 minutes, at a rate not to exceed 6 μg/kg/min. Although the successive doses of binodenoson were administered on the same study day, the washout period between doses was at least 2 hours. Subjects in cohort 1 received consecutive binodenoson doses of 0.1, 0.2 and 0.4 μg/kg; cohort 2 received 0.6, 1 and 2 μg/kg; cohort 3 received 2, 3 and 4 μg/kg; and cohort 4 received 4, 5 and 6 μg/kg.
Serial vital sign monitoring of heart rate, supine systolic blood pressure and diastolic blood pressure was done at screening and during each dosing phase within 10 minutes before infusion, at 2, 4, 6, 8 and 10 minutes during infusion and at 2, 5, 7.5, 10, 15, 20, 30, 45, 60, 90 and 120 minutes after infusion. A 12-lead electrocardiogram (ECG) was obtained at screening and the end of the study. The ECG was monitored via telemetry during the treatment phase, including during the infusions. Monitoring was initiated within 1 hour before dosing and continued until 24 hours after completion of the last dose.
A total of 40 to 42 blood samples were collected during the treatment phase for quantitation of binodenoson in plasma. Before dosing, a polyethylene catheter was inserted into a vein of the forearm contralateral to the infusion site. Blood samples (5 mL) were drawn into prechilled Vacutainer tubes (BD, Franklin Lakes, N.J.) just before infusion (−1 minute), at the midpoint (5 minutes) and end (10 minutes) of infusion and at 2, 5, 7.5, 10, 15, 20, 30, 45, 60, 90 and 120 minutes after the end of infusion. Plasma was separated from cellular material by centrifugation under refrigeration (4° C.) at 4000 rpm for 10 minutes and then stored in cryotubes at −80° C. until analyzed. The total amount of blood taken during the intensive sampling period was approximately 200 mL. Plasma concentrations of binodenoson were determined by a validated high-performance liquid chromatography-mass spectrometry (LC/MS/MS) assay at Phoenix International, Inc. (Montreal, Quebec, Canada).
Pharmacokinetic parameters were derived for each subject's plasma binodenoson concentration-time profile for each binodenoson infusion by use of noncompartmental methods with the statistical software program SAS (SAS Institute, Cary, N.C.). The peak concentration (Cmax) and corresponding time to (Cmax) (tmax) were derived by observation. […]

[1] = 0.4 ug/kg, 0.4 μg/kg iv over 10 minutes
[2] = 0.6 ug/kg, 0.6 μg/kg iv over 10 minutes
[3] = 1 ug/kg, 1 μg/kg iv over 10 minutes
[4] = 2 ug/kg, 2 μg/kg iv over 10 minutes
[5] = 3 ug/kg, 3 μg/kg iv over 10 minutes
[6] = 4 ug/kg, 4 μg/kg iv over 10 minutes
[7] = 6 ug/kg, 6 μg/kg iv over 10 minutes
[8] = 8 ug/kg, 8 μg/kg iv over 10 minutes

For `Nc1nc(N/N=C/C2CCCCC2)nc2c1ncn2[C@@H]1O[C@H](CO)[C@@H](O)[C@H]1O` (stereo in doubt) [Binodenoson, 2-{2-[(Cyclohexyl)methylene]hydrazino}adenosine], the “maximum increase in heart rate” value (1 μg/kg dose) was 29 beats/min, the “mean maximal increase in systolic blood pressure from baseline” value (1 μg/kg dose) was 8.8 mmHg and the “maximum increase in heart rate” value (6 μg/kg dose) was 66.3 beats/min. The “mean maximal increase in systolic blood pressure from baseline” value (6 μg/kg dose) was 27.9 mmHg, the “volunteers reporting at least 1 AE” value (21 of 24 volunteers) was 83% and the “AEs judged related to administration of binodenoson” value (all doses) was 99%. For the same compound, the “AEs of mild severity” value (all doses) was 82%, the “AEs of moderate severity” value (all doses) was 17% and the “AEs that began during drug infusions and resolved within 30 minutes of onset” value (all doses) was 75%. The ECG changes (all doses) was “no clinically significant ECG changes”, the “serious AEs” value (all doses) was “no serious AEs” and the frequency of dizziness (doses of 1 μg/kg or lower) was 0%. It also gave a frequency of headache (doses of 1 μg/kg or lower) of 7%, a frequency of nausea/vomiting (doses of 1 μg/kg or lower) of 0% and a frequency of paresthesia (doses of 1 μg/kg or lower) of 3%. The frequency of vasodilation (doses of 1 μg/kg or lower) was 14%, the frequency of dizziness (doses of 2 μg/kg or greater) was 24% and the frequency of headache (doses of 2 μg/kg or greater) was 60%. It also gave a frequency of nausea/vomiting (doses of 2 μg/kg or greater) of 49%, a frequency of paresthesia (doses of 2 μg/kg or greater) of 19% and a frequency of vasodilation (doses of 2 μg/kg or greater) of 54%. For the same compound, the tolerability (doses ranging from 0.4 μg/kg to 6 μg/kg) was “well tolerated”, the Cmax [1] was 0.9 ng/mL and the Cmax [2] was 1.1 ng/mL. For the same compound, the Cmax [3] was 2.1 ng/mL, the Cmax [4] was 3.9 ng/mL and the Cmax [5] was 6.2 ng/mL. It also gave a Cmax [6] of 8.7 ng/mL, a Cmax [7] of 12.5 ng/mL and a Cmax [8] of 12.1 ng/mL. It also gave a Tmax [1] of 10 min, an AUC(0-inf) [1] of 0.207 ng·h/mL and an AUC(0-t) [1] of 0.15 ng·h/mL. For the same compound, the clearance (0.4 ug/kg, 0.4 μg/kg iv over 10 minutes, read-out: CL, mean (SD)) was 33.4 mL/min/kg, the half-life (0.4 ug/kg, 0.4 μg/kg iv over 10 minutes, read-out: T1/2, mean (SD)) was 8.8 min and the Vd [1] was 0.39 L/kg. For the same compound, the Tmax [2] was 7.5 min, the AUC(0-inf) [2] was 0.353 ng·h/mL and the AUC(0-t) [2] was 0.208 ng·h/mL. For the same compound, the clearance (0.6 ug/kg, 0.6 μg/kg iv over 10 minutes, read-out: CL, mean (SD)) was 28.8 mL/min/kg, the half-life (0.6 ug/kg, 0.6 μg/kg iv over 10 minutes, read-out: T1/2, mean (SD)) was 11.7 min and the Vd [2] was 0.46 L/kg. For the same compound, the Tmax [3] was 10 min, the AUC(0-inf) [3] was 0.465 ng·h/mL and the AUC(0-t) [3] was 0.415 ng·h/mL. For the same compound, the clearance (1 ug/kg, 1 μg/kg iv over 10 minutes, read-out: CL, mean (SD)) was 38.3 mL/min/kg, the half-life (1 ug/kg, 1 μg/kg iv over 10 minutes, read-out: T1/2, mean (SD)) was 7.4 min and the Vd [3] was 0.4 L/kg. The Tmax [4] was 10 min, the AUC(0-inf) [4] was 0.928 ng·h/mL and the AUC(0-t) [4] was 0.855 ng·h/mL. For the same compound, the clearance (2 ug/kg, 2 μg/kg iv over 10 minutes, read-out: CL, mean (SD)) was 33 mL/min/kg, the half-life (2 ug/kg, 2 μg/kg iv over 10 minutes, read-out: T1/2, mean (SD)) was 10 min and the Vd [4] was 0.48 L/kg. For the same compound, the Tmax [5] was 9.5 min, the AUC(0-inf) [5] was 1.42 ng·h/mL and the AUC(0-t) [5] was 1.31 ng·h/mL. For the same compound, the clearance (3 ug/kg, 3 μg/kg iv over 10 minutes, read-out: CL, mean (SD)) was 35.4 mL/min/kg, the half-life (3 ug/kg, 3 μg/kg iv over 10 minutes, read-out: T1/2, mean (SD)) was 12.8 min and the Vd [5] was 0.65 L/kg. For the same compound, the Tmax [6] was 10 min, the AUC(0-inf) [6] was 2.03 ng·h/mL and the AUC(0-t) [6] was 1.93 ng·h/mL. The clearance (4 ug/kg, 4 μg/kg iv over 10 minutes, read-out: CL, mean (SD)) was 39.8 mL/min/kg, the half-life (4 ug/kg, 4 μg/kg iv over 10 minutes, read-out: T1/2, mean (SD)) was 13 min and the Vd [6] was 0.69 L/kg. It also gave a Tmax [7] of 9 min, an AUC(0-inf) [7] of 2.32 ng·h/mL and an AUC(0-t) [7] of 2.22 ng·h/mL. It also gave a clearance (6 ug/kg, 6 μg/kg iv over 10 minutes, read-out: CL, mean (SD)) of 33.9 mL/min/kg, a half-life (6 ug/kg, 6 μg/kg iv over 10 minutes, read-out: T1/2, mean (SD)) of 14.9 min and a Vd [7] of 0.7 L/kg. It also gave a Tmax [8] of 10.5 min, an AUC(0-inf) [8] of 2.72 ng·h/mL and an AUC(0-t) [8] of 2.6 ng·h/mL. It also gave a clearance (8 ug/kg, 8 μg/kg iv over 10 minutes, read-out: CL, mean (SD)) of 39.5 mL/min/kg, a half-life (8 ug/kg, 8 μg/kg iv over 10 minutes, read-out: T1/2, mean (SD)) of 12.3 min and a Vd [8] of 0.68 L/kg. For the same compound, the clearance (intravenous, across all dose levels, read-out: mean systemic clearance) was 34.4 ± 7.5 mL/min/kg, the half-life (intravenous, across all doses, read-out: terminal half-life, harmonic mean) was 10 ± 4 min and the “relationship between clearance (CL) and body weight (BW)” value (linear mixed-effect model, p=0.004) was “CL=−0.19+0.039 BW”. For the same compound, the “AUC0-t as share of total AUC0-∞” value (trapezoidal rule) was “greater than 80%”.

Source: patent publication US20110002843A1, “METHOD OF DETECTING MYOCARDIAL DYSFUNCTION IN PATIENTS HAVING A HISTORY OF ASTHMA OR BRONCHOSPASM” (priority 2005, published 2011)
